Test system: T1, cold-active lipase from Pseudomonas sp. A6
T1 construct: 65 kDa by SDS-PAGE
Experiment: spectrophotometric p-nitrophenol release at […] nm; Lineweaver-Burk plot
Assay type: biochemical
Conditions: 10 °C; phosphate buffer; pH of the Km assay not stated; unit printed ambiguously as 'm mol'

Km: 6.6 * 10^−4 m mol L^−1
SMILES: CCCCCCCCCCCC(=O)Oc1ccc([N+](=O)[O-])cc1 [p-nitrophenyl laurate]
